{"source": "patent US20050181952A1", "about": "“Slow-release agrochemicals dispenser and method of use” (priority 2002, published 2005)", "key": {"Striga [1]": {"tested_on": "Striga", "assay": "Pot experiments, Kenya: watering regimes and efficacy of slow release formulations on Striga", "assay_type": "in vivo", "details": "pots", "procedure": "Formulations were prepared as outlined in Example 3 and applied to the seeds, without adding free imazapyr (as in Example 2) and planted in pots. 63 pots (10,380 cm^3) were set up, each with 8 kg soil (classified as a vetro-eutic planosol according to the FAO/UNESCO (1974) system) so that we had 21 pots per replication. Each pot was inoculated with 3,000 Striga and mixed thoroughly at a depth of 15 cm. The pots were watered and left for one week to allow Striga seeds to “pre-condition” for germination. Two IR-corn seeds were planted in each plot, each treated 0, 0.25, 0.5 acid equivalent mg imazapyr per pot, as the free acid of the herbicide, or in 0, 0.15, 0.3, acid equivalent mg imazapyr per pot DE-52 or Dowex 1 formulations. Each formulation treatment at each rate had three replicates at each simulated rainfall regime. Natural rain measurements were made. Rainfall was supplemented at 19, 28, and 56 mm of water applied twice weekly, less amount of natural rainfall, for three months to simulate seasonal rainfalls of 500, 750 and 1500 mm, respectively. Measurements of Striga emergence were made at biweekly intervals. Late season emergence of Striga was measured at 12 weeks after planting. […] At the medium and highest watering level, there was no control of Striga by the lowest free herbicide rates, whereas the slow release herbicide performed far better (Table 3)."}, "Striga [2]": {"tested_on": "Striga", "assay": "Field experiment Short Rains 2002: slow release formulations without free herbicide, Striga control", "assay_type": "in vivo", "procedure": "A solid coat of polylvinylpyrollidone (PVP) (avg. MW 90 Kd) was used to bind the various formulations to the maize seed. 90 mg of PVP mixed with 2.9 ml water was combined with various amounts of the slow release formulations described in Example 1 or with 36 mg dry imazapyr (acid form) or sodium pyrithiobac powder mixed thoroughly together and then with 144 maize seeds (to give a imazapyr coating of 0.25 mg a.e. imazapyr seed^−1). This is the equivalent of 13.25 g a.e. ha^−1, respectively, when planted in the field at 53,300 seeds ha^−1. The treated seeds were then planted in the field within 2 days of coating. All field experiments were conducted at the National Sugar Research Center (NRSC) of the Kenya Agricultural Research Institute (KARI) near Kibos (0°04′S, 34°48′, elevation 1214 m) in western Kenya. The soil is classified as a vetro-eutic planosol according to the FAO/UNESCO (1974) system. The fields used had previously been cropped to maize that was heavily infested with Striga, which matured and seeded the area. The experiments were carried out during October-January […]. Seasonal precipitation during that season was 550 mm. […] Maize stand counts were determined six weeks after planting. […] The number of flowering Striga plants and Striga seed capsules at twelve and fourteen weeks; adjusted grain yield to 15% moisture; and total maize shoot dry weight were all measured. […]"}}}
{"compound": "CC(C)C1(C)N=C(c2ncccc2C(=O)O)NC1=O", "note": "(centres unmarked) [Imazapyr, imazapyr]", "values": [{"measurement": "Late season Striga emergence 12 weeks (plants/m^2)", "setting": "Striga [1]; High water (1500 mm total), imazapyr 0.25 mg/seed", "result": 57, "unit": "plants/m^2"}, {"measurement": "Late season Striga emergence 12 weeks (plants/m^2)", "setting": "Striga [1]; High water (1500 mm total), imazapyr 0.5 mg/seed", "result": 11, "unit": "plants/m^2"}, {"measurement": "Late season Striga emergence 12 weeks (plants/m^2)", "setting": "Striga [1]; Low water (500 mm total), imazapyr 0.25 mg/seed", "result": 16, "unit": "plants/m^2"}, {"measurement": "Late season Striga emergence 12 weeks (plants/m^2)", "setting": "Striga [1]; Low water (500 mm total), imazapyr 0.5 mg/seed", "result": 3, "unit": "plants/m^2"}, {"measurement": "Late season Striga emergence 12 weeks (plants/m^2)", "setting": "Striga [1]; Medium water (750 mm total), imazapyr 0.25 mg/seed", "result": 33, "unit": "plants/m^2"}, {"measurement": "Late season Striga emergence 12 weeks (plants/m^2)", "setting": "Striga [1]; Medium water (750 mm total), imazapyr 0.5 mg/seed", "result": 7, "unit": "plants/m^2"}, {"measurement": "Striga emergence (m^−2) at 12 weeks", "setting": "Striga [2]; imazapyr 0.25 mg/seed", "result": 2.1, "unit": "m^−2"}, {"measurement": "Striga emergence (m^−2) at 12 weeks", "setting": "Striga [2]; imazapyr 0.5 mg/seed", "result": 0.7, "unit": "m^−2"}]}
